Conditions: solid crystalline form; no method or figures given

Question: For `C[N+]1(C)C2CC(OC(=O)C(O)(c3cccs3)c3cccs3)CC1C1OC12.NC(N)=O.[Br-]` (stereo not shown) [tiotropium bromide-urea co-crystal], which hygroscopical behaviour is on record?
Answer: only very little hygroscopical behaviour

From patent publication US20110257215A1, “NOVEL CO-CRYSTAL OF TIOTROPIUM BROMIDE” (Boehringer Ingelheim Pharma GmbH CO.KG, priority 2006, published 2011)
